Legend:
Conditions in all cases: 72 h
Caco-2 [1] = test: relative viability EC50 (midpoint between 100% and the lowest measured viability); higher = less toxic
HepG2 [2] = test: as above
U2OS [3] = test: as above
Calu-3 [4] = test: as above
Vero E6 [5] = test: as above
Caco-2 [6] = test: drug sensitivity score (DSS) for viability; higher = more toxic; extreme values may be limits of the assay
HepG2 [7] = test: as above
U2OS [8] = test: as above
Calu-3 [9] = test: as above
Vero E6 [10] = test: as above
Caco-2 [11] = test: cell viability relative to DMSO; higher = less toxic
HepG2 [12] = test: as above
U2OS [13] = test: as above
Calu-3 [14] = test: as above
Vero E6 [15] = test: as above

Structure (SMILES)	relative viability EC50 (Caco-2 [1]) [µM]	relative viability EC50 (HepG2 [2]) [µM]	relative viability EC50 (U2OS [3]) [µM]	relative viability EC50 (Calu-3 [4]) [µM]	relative viability EC50 (Vero E6 [5]) [µM]	drug sensitivity score (Caco-2 [6])	drug sensitivity score (HepG2 [7])	drug sensitivity score (U2OS [8])	drug sensitivity score (Calu-3 [9])	drug sensitivity score (Vero E6 [10])	cell viability (Caco-2 [11]; 1 nM) [%]	cell viability (Caco-2 [11]; 10 nM) [%]	cell viability (Caco-2 [11]; 100 nM) [%]	cell viability (Caco-2 [11]; 1000 nM) [%]	cell viability (Caco-2 [11]; 10000 nM) [%]	cell viability (HepG2 [12]; 1 nM) [%]	cell viability (HepG2 [12]; 10 nM) [%]	cell viability (HepG2 [12]; 100 nM) [%]	cell viability (HepG2 [12]; 1000 nM) [%]	cell viability (HepG2 [12]; 10000 nM) [%]	cell viability (U2OS [13]; 1 nM) [%]	cell viability (U2OS [13]; 10 nM) [%]	cell viability (U2OS [13]; 100 nM) [%]	cell viability (U2OS [13]; 1000 nM) [%]	cell viability (U2OS [13]; 10000 nM) [%]	cell viability (Calu-3 [14]; 1 nM) [%]	cell viability (Calu-3 [14]; 10 nM) [%]	cell viability (Calu-3 [14]; 100 nM) [%]	cell viability (Calu-3 [14]; 1000 nM) [%]	cell viability (Calu-3 [14]; 10000 nM) [%]	cell viability (Vero E6 [15]; 1 nM) [%]	cell viability (Vero E6 [15]; 10 nM) [%]	cell viability (Vero E6 [15]; 100 nM) [%]	cell viability (Vero E6 [15]; 1000 nM) [%]	cell viability (Vero E6 [15]; 10000 nM) [%]
CCCCCCCCCCOc1cc2c(O)c(C(=O)OCC)cnc2cc1OCC [decoquinate]	> 10	> 10	> 10	> 10	> 10	0	0	0	0	0	101	92.6	93.3	89.4	96.6	95.9	103	98.9	107	96.2	100	99.8	99	99.6	100	99.8	107	106	98.2	105	102	103	105	96.7	103
CCCCCCCCCCC(CO)CCCCCCCC (stereo not given) [2-octyldodecan-1-ol]	> 10	> 10	> 10	> 10	> 10	0	0	0	0	0	96.1	103	98.9	93.1	98.2	96.8	95.8	102	102	98.3	96.6	98	97.3	101	95.9	98.5	88.2	98.2	100	102	98.4	97.3	97.4	93.5	99.7
CCOc1ccc(Cc2cc([C@]34OC[C@](CO)(O3)[C@@H](O)[C@H](O)[C@H]4O)ccc2Cl)cc1 [ertugliflozin]	> 10	> 10	> 10	> 10	> 10	0	0	0	0	0	96.8	96.9	90.5	89.9	103	108	109	107	98.6	98.6	101	102	102	98.1	101	106	99.1	104	98.7	96.4	102	104	95.1	101	102
CCOC(=O)C1=C(C)NC(C)=C(C(=O)OC)C1c1cccc(Cl)c1Cl (stereo not given) [felodipine]	> 10	> 10	> 10	> 10	> 10	0	0	0	0	0	101	102	104	91.8	99	105	107	99.5	99.2	96.9	106	96.7	99.7	97.4	100	89.8	101	111	98.2	102	99.2	103	101	103	94.7
C[C@]12CC[C@H](O)CC1=CC[C@@H]1[C@@H]2CC[C@]2(C)C(=O)CC[C@@H]12 [PRASTERONE]	> 10	> 10	> 10	> 10	> 10	0	0	0	0	0	96.8	99.4	91.4	100	92.6	104	101	94.2	92.3	92.2	97.4	102	102	97.5	100	94.9	81.2	98.3	96.6	108	99.5	101	98.7	98.7	95.2
CCOCCn1c(N2CCCN(C)CC2)nc2ccccc21 [emedastine]	> 10	> 10	> 10	> 10	> 10	0	0	0	0	0	97.3	102	102	95.4	91.2	89	98.4	92.7	101	107	97.4	96.3	93	98.4	96	94.2	101	99.3	112	106	99.1	105	100	98.4	99.8
NCC(=O)N1C[C@H](NC(=O)c2ccccc2)C[C@H]1C(=O)O [danegaptide]	> 10	> 10	> 10	> 10	> 10	0	0	0	0	0	98.3	97.1	90.7	86.3	107	106	102	99.7	101	104	93.6	93.6	98.5	101	99.3	98.6	93.3	101	96.4	91.1	101	101	93.8	99.9	106

— the supplement of paper PMC13380429
